From patent US20240166643A1, “IMIDAZO[1,2-A]PYRIDINE COMPOUNDS AND THEIR USE IN THERAPY” (Imperial College Innovations Limited, priority 2020, published 2024)
Where two headings read alike, the source gives them in different places. Marks after values point to notes of the source that are not given here.

What was measured:
[1] = test system: P. falciparum Pf3D7^0087/N9; test: Mouse malaria model, NODscidIL2Rγnull mice engrafted with human erythrocytes; conditions: for average parasitemia values: 50 mg/kg po per day on day 3, 4, 5 and 6 post-infection
[2] = target: Plasmodium vivax (Pv) NMT (Plasmodium vivax (strain Salvador I), UniProt A5K1A2); test: biochemical
Sequence of Plasmodium vivax (Pv) NMT (A5K1A2 1-410): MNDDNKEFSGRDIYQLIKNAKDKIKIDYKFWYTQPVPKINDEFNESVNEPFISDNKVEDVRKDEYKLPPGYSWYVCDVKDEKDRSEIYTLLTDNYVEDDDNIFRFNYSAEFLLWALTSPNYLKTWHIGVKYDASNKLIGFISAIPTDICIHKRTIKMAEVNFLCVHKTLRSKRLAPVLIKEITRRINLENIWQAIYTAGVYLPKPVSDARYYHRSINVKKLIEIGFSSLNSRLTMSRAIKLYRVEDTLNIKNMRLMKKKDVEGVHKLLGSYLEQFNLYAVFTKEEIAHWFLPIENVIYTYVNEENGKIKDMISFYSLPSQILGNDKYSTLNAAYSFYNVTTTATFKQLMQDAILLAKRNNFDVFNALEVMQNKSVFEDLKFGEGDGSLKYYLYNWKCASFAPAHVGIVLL

[3] = test system: Plasmodium falciparum strain NF54; test: SYBR Green assay, Plasmodium falciparum strain NF54; conditions: NF54, read-out: Pf EC50 strain NF54
Human NMT1 (HsNMT1) = Human NMT1 (HsNMT1) (Homo sapiens, UniProt P30419); test: biochemical
Sequence of Human NMT1 (HsNMT1) (P30419 whole entry, looked up): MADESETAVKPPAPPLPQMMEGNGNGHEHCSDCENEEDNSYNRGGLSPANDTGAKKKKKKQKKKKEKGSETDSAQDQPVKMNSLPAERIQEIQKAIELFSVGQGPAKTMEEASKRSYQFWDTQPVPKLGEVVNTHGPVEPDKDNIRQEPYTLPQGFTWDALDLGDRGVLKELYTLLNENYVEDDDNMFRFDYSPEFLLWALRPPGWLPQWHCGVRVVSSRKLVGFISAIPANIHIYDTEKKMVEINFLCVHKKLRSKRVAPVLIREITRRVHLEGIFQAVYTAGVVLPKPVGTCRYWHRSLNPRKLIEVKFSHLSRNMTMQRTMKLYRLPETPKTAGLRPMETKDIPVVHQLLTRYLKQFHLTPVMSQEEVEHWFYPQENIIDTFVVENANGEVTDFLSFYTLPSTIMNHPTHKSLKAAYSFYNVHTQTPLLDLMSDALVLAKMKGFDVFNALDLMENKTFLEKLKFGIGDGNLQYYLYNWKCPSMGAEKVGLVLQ

BL-41 cells = test: Metabolic activity assay (MTS assay) in BL-41 cell line; format: cell-based; conditions: Homo sapiens, 72 h
[4] = test system: Plasmodium falciparum 3D7; test: SYBR Green assay, Plasmodium falciparum strain 3D7; format: cell-based; conditions: P. falciparum strain 3D7, 96 h incubation, read-out: Pf EC50 strain 3D7
in vitro = conditions: male, Sprague-Dawley, rat, pooled cryopreserved rat hepatocytes, pH 7.4
[5] = Rat clearance and bioavailability (iv and oral dosing); format: in vivo; conditions: male, Sprague-Dawley, plasma; for half-life: read-out: Rat iv t1/2 (converted)
SU-DHL-10 cells = test: Cell cytotoxicity in SU-DHL-10 cell line (CellTiter-Glo); format: cell-based; conditions: Homo sapiens, SU-DHL10; CellTiter-Glo, 48 h; read-out: SU-DHL-10 EC50
[6] = iv 3 mg/kg, administered as a single compound
[7] = oral 30 mg/kg, administered as a single compound
[8] = iv 1 mg/kg, cassette dosing of 4 compounds
[9] = oral 5 mg/kg, cassette dosing of 4 compounds

| SMILES | IC50 [2] | EC50 [3] | IC50 (Human NMT1 (HsNMT1)) | EC50 [4] | also measured |
| --- | --- | --- | --- | --- | --- |
| CCN(CC)CCCC(C)Nc1ccnc2cc(Cl)ccc12 (stereo not drawn) [Chloroquine (CQ), chloroquine, reference compound] |  |  |  |  | average parasitemia values ([1]; day 0 post infection): 0.01%; average parasitemia values ([1]; day 3 post infection): 0.80%; average parasitemia values ([1]; day 4 post infection): 0.24%; average parasitemia values ([1]; day 5 post infection): 0.05%; average parasitemia values ([1]; day 6 post infection): 0.01%; average parasitemia values ([1]; day 7 post infection): 0.00* % |
| O=C(NCc1cnc2ccccn12)C1CN(c2nc(N3CCCNCC3)ncc2F)C1 [Example 6] | 130 nM | > 10000 nM |  |  |  |
| O=C(NCc1cnc2ccccn12)C1CN(c2nc(N3CC4CNC4C3)ncc2Cl)C1 (stereo not drawn) [Example 7] | 40 nM | 3200 nM | 110 nM |  |  |
| O=C(NCc1cnc2ccccn12)C1CN(c2nc(N3CC4CNC4C3)ncc2F)C1 (stereo not drawn) [Example 8] | 470 nM | > 10000 nM | 1020 nM |  |  |
| CC(NC(=O)C1CN(c2nc(N3CCCNCC3)ncc2F)C1)c1cnc2ccccn12 (stereo not drawn) [Example 9] | 41 nM | 2100 nM | 79 nM |  |  |
| CC(NC(=O)C1CN(c2nc(N3CCCNCC3)ncc2Cl)C1)c1cnc2ccccn12 (stereo not drawn) [Example 10] | 6.3 nM |  | 7.9 nM | 510 nM | EC50 (BL-41 cells): 240 nM; half-life at 1 µM (in vitro): 2.03 h |
| CC(C)(NC(=O)C1CN(c2nc(N3CCCNCC3)ncc2F)C1)c1cnc2ccccn12 [Example 11] | 14 nM |  |  | 51 nM | EC50 (BL-41 cells): 890 nM; half-life [5, 6]: 4.4 h; bioavailability [5, 7]: 0.35% |
| Cc1nc2ccccn2c1CNC(=O)C1CN(c2nc(N3CCCNCC3)ncc2F)C1 [Example 12] | 200 nM | > 2500 nM | 130 nM |  |  |
| Cc1nc2ccccn2c1CNC(=O)C1CN(c2nc(N3CC4CNC4C3)ncc2F)C1 (stereo not drawn) [Example 13] | 660 nM | > 10000 nM | 380 nM |  |  |
| O=C(NCc1cnc2ccccn12)C1CN(c2nc(N3CCNCC3)ncc2F)C1 [Example 16] | 68 nM | > 5000 nM |  |  | half-life [5, 6]: 5.9 h; bioavailability [5, 7]: 0.5%; half-life at 1 µM (in vitro): > 6.25 h |
| CN(Cc1cnc2ccccn12)C(=O)C1CN(c2nc(N3CCCNCC3)ncc2Cl)C1 [Example 17] | 140 nM | > 5000 nM | 360 nM |  |  |
| Cc1nc2ccccn2c1CNC(=O)C1CN(c2nc(N3CCCNCC3)ncc2Cl)C1 [Example 18] | 8.8 nM | 2700 nM | 20 nM |  |  |
| COc1cnc(N2CCCNCC2)nc1N1CC(C(=O)NCc2cnc3ccccn23)C1 [Example 19] | 59 nM | 3600 nM |  |  |  |
| COc1cnc(N2CCCNCC2)nc1N1CC(C(=O)NC(C)(C)c2cnc3ccccn23)C1 [Example 20] | 16 nM |  | 16 nM | 150 nM | EC50 (BL-41 cells): 1160 nM |
| O=C(NCc1cnc2cc(Cl)ccn12)C1CN(c2nc(N3CCCNCC3)ncc2Cl)C1 [Example 22] | 3.8 nM | 450 nM |  |  |  |
| COc1cnc(N2CCCNCC2)nc1N1CC(C(=O)NC(C)c2c(C)nc3ccccn23)C1 (stereo not drawn) [Example 23] | 30 nM | 340 nM | 27 nM |  |  |
| Cc1nc2ccccn2c1C(C)NC(=O)C1CN(c2nc(N3CCCNCC3)ncc2Cl)C1 (stereo not drawn) [Example 24] | 12 nM | 180 nM | 6.3 nM |  |  |
| O=C(NCc1cnc2ccccn12)C1CN(c2nc(N3CCNCC3)ncc2Cl)C1 [Example 25] | 15 nM | 1090 nM |  |  |  |
| C[C@H]1CN(c2ncc(F)c(N3CC(C(=O)NCc4cnc5ccccn45)C3)n2)CCN1 [Example 26] | 240 nM | > 2330 nM |  |  |  |
| C[C@H]1CN(c2ncc(Cl)c(N3CC(C(=O)NCc4cnc5ccccn45)C3)n2)CCN1 [Example 27] | 37 nM | 2820 nM |  |  |  |

| SMILES | IC50 [2] | EC50 [3] | IC50 (Human NMT1 (HsNMT1)) | EC50 [4] | also measured |
| --- | --- | --- | --- | --- | --- |
| CC1CN(c2ncc(F)c(N3CC(C(=O)NCc4cnc5ccccn45)C3)n2)CCN1 (stereo not drawn) [Example 28] | 95 nM | 3040 nM |  |  |  |
| CC(NC(=O)C1CN(c2nc(N3CCNCC3)ncc2F)C1)c1cnc2ccccn12 (stereo not drawn) [Example 31] | 19 nM | 1300 nM | 180 nM |  |  |
| COc1cnc(N2CCN[C@H](C)C2)nc1N1CC(C(=O)NC(C)(C)c2cnc3ccccn23)C1 [Example 36] | 6.2 nM | 12 nM |  |  |  |
| COc1cnc(N2CCN[C@@H](C)C2)nc1N1CC(C(=O)NC(C)(C)c2cnc3ccccn23)C1 [Example 39] | 12 nM | 85 nM |  |  |  |
| CN(c1ncc(Cl)c(N2CC(C(=O)NC(C)(C)c3cnc4ccccn34)C2)n1)C1CCNC1 (stereo not drawn) [Example 41] | 7.2 nM | 45 nM | 19 nM |  |  |
| CC(C)(NC(=O)C1CN(c2nc(N3CCCNCC3)ncc2Cl)C1)c1cnc2ccccn12 [Example 51] | 5.3 nM |  |  | 28 nM | EC50 (BL-41 cells): 80 nM; half-life [5, 6]: 9.1 h; bioavailability [5, 7]: 0.07% |
| CN1CCCN(c2ncc(F)c(N3CC(C(=O)NCc4cnc5ccccn45)C3)n2)CC1 [Example 52] | 47 nM | > 10000 nM |  |  |  |
| CN1CCCN(c2ncc(Cl)c(N3CC(C(=O)NCc4cnc5ccccn45)C3)n2)CC1 [Example 53] | 5.8 nM | 260 nM |  |  | half-life at 1 µM (in vitro): 0.4 h |
| CN1CCN(c2ncc(F)c(N3CC(C(=O)NC(C)(C)c4cnc5ccccn45)C3)n2)CC1 [Example 54] | 6.2 nM |  |  | 160 nM | EC50 (BL-41 cells): 2310 nM; half-life [5, 8]: 3.5 h; bioavailability [5, 9]: 33%; half-life at 1 µM (in vitro): > 3 h |
| CN1CCN(c2ncc(Cl)c(N3CC(C(=O)NC(C)(C)c4cnc5ccccn45)C3)n2)CC1 [Example 55] | 4.4 nM |  |  | 64 nM | EC50 (BL-41 cells): 1070 nM; half-life [5, 8]: 3.1 h; bioavailability [5, 9]: 38%; half-life at 1 µM (in vitro): 2.33 h |
| CN1CCCN(c2ncc(Cl)c(N3CC(C(=O)NC(C)(C)c4cnc5ccccn45)C3)n2)CC1 [Example 57] | 2.2 nM |  | 3.5 nM | 49 nM | EC50 (BL-41 cells): 1250 nM; EC50 (SU-DHL-10 cells): 203 nM; half-life [5, 8]: 6.6 h; bioavailability [5, 9]: 6%; half-life at 1 µM (in vitro): 2.52 h |
| COCCN1CCN(c2ncc(Cl)c(N3CC(C(=O)NC(C)(C)c4cnc5ccccn45)C3)n2)CC1 [Example 72] | 7.7 nM |  | 82 nM | > 590 nM | half-life [5, 8]: 2.7 h; bioavailability [5, 9]: 34%; half-life at 1 µM (in vitro): > 3 h |
| CN1CCN(c2ncc(Cl)c(N3CC(C(=O)N(C)C(C)(C)c4cnc5ccccn45)C3)n2)CC1 [Example 73] |  |  |  | 810 nM | half-life [5, 8]: 3.6 h; bioavailability [5, 9]: 65%; half-life at 1 µM (in vitro): > 3 h |
| CC1CN(c2ncc(Cl)c(N3CC(C(=O)N(C)C(C)(C)c4cnc5ccccn45)C3)n2)CCN1C (stereo not drawn) [Example 74] |  |  |  | 120 nM | half-life ([5]; iv 1 mg/kg, administered as a single compound): 2.2 h; bioavailability ([5]; oral 10 mg/kg, administered as a single compound): 28%; half-life at 1 µM (in vitro): > 3 h |
| CN1CCN(c2ncc(F)c(N3CC(C(=O)N(C)C(C)(C)c4cnc5ccccn45)C3)n2)CC1 [Example 78] | 120 nM |  | 400 nM | > 1000 nM | half-life [5, 8]: 2.3 h; bioavailability [5, 9]: 73%; half-life at 1 µM (in vitro): > 3 h |
| C[C@H]1CN(c2ncc(Cl)c(N3CCC(C(=O)NC(C)(C)c4cnc5ccccn45)CC3)n2)CCN1C [Example 101, 1-{5-chloro-2-[(3S)-3,4-dimethylpiperazin-1-yl]pyrimidin-4-yl}-N-(2-{imidazo[1,2-a]pyridin-3-yl}propan-2-yl)piperidine-4-carboxamide] | 33 nM |  | 310 nM | > 1000 nM | half-life [5, 8]: 5.4 h; bioavailability [5, 9]: 32%; half-life at 1 µM (in vitro): 1.74 h |
| C[C@H]1CN(C)CCN1c1ncc(Cl)c(N2CC(C(=O)N(C)C(C)(C)c3cnc4ccccn34)C2)n1 [Example 107, 1-{5-chloro-2-[(2S)-2,4-dimethylpiperazin-1-yl]pyrimidin-4-yl}-N-(2-{imidazo[1,2-a]pyridin-3-yl}propan-2-yl)-N-methylazetidine-3-carboxamide] |  |  |  | 140 nM | half-life [5, 8]: 1.7 h; bioavailability [5, 9]: 37% |
| O=C(NCc1nnc2ccccn12)C1CN(c2nc(N3CCCNCC3)ncc2Cl)C1 [Example 112] |  | > 10000 nM | 319 nM |  |  |
| CCN(CC)CCCC(C)Nc1ccnc2cc(Cl)ccc12 (stereo not drawn) [chloroquine, reference compound] |  |  |  |  | mice / smears parasite free ([1]; 4×50 mg/kg p.o., day 7): parasite-free |
